The record followed here is US11008572B2, “Methods and compositions for modulating splicing” (SKYHAWK THERAPEUTICS, INC., priority 2017, dated 2021).

The structures appear in SMILES notation. Like-named read-outs stand apart in the source and are kept apart here. Some results are limits rather than exact numbers.

One experiment deals with A375 xenografts. The experiment is described as follows: A375 xenograft tumor growth inhibition. Conditions: immunocompromised nude mice with pre-existing A375 xenografts. It counts as in vivo. The protocol:
Studies were performed to assess the effects of in vivo SMSM treatment on glioblastoma, breast, pancreatic, prostate, melanoma, lymphoma and Ewing sarcoma tumors. Studies were also performed to assess the effects of in vivo SMSM treatment on mRNA levels. Immunocompromised nude mice with pre-existing glioblastoma, breast, pancreatic, prostate, melanoma, lymphoma and Ewing sarcoma xenografts were treated with vehicle or SMSMs. Tumor tissues from subcutaneous xenografts were broken into a powder using a BioPulverizer (Biospec Products, Inc.). After SMSM treatment, mRNA was isolated from the xenografts and was analyzed by qRT-PCR.
Tumor size was measured 2 times per week in two dimensions using a caliper. Studies were terminated when the tumor size in the vehicle treated group reached 2,000 mm^3. Each mouse was bled at 2 hrs after the last dose and at least 50 μl of plasma was collected from each mouse. All of the collected plasma samples and retainer dosing solutions for each dose level were used for bioanalytical measurements. All tumors were also collected and weighed. One necrosis-free tumor fragment of approximately 50 mg was taken from each tumor and flash-frozen for RNA isolation. […]
The effects of in vivo SMSM treatments on pre-existing subcutaneous glioblastoma, breast, pancreatic, prostate, melanoma, lymphoma and Ewing sarcoma xenografts were assessed. […]

A further experiment deals with A-673 cells. The experiment is described as follows: Cell viability, crystal violet staining. It counts as cell-based. The note with it: Homo sapiens. An outline of the steps: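 Readout is absorbance at 570 nm of crystal violet, taken up in 0.1 M sodium citrate in 50% ethanol after staining with 0.5% dye in 25% methanol. Plates held 5×10^3 cells per well, and compounds were added one day after seeding for 72 hours. Data are relative to vehicle, mean±SE.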

Experiment [1] in a line: Splicing (IC50), Example 22. It counts as cell-based. Conditions: spliced gene and cells not stated. The method, then:
A-673 cell viability […], splicing (IC50) and brain AUC/Plasma AUC of SMSMs were determined. As shown in the tables below SMSMs had high CNS exposure.

The next experiment has as its system IKBKAP^FL mRNA. The experiment is described as follows: IKBKAP splicing assay, qPCR. It counts as cell-based. Conditions: 24 hours of incubation. The method, then:
(§1) Various cells lines were treated with the SMSMs described herein. RNA was then isolated, cDNA synthesized, qPCR performed and the levels of IKBKAP targets of the SMSMs were determined.
(§2) On the day of the experiment, a 96-well plate was seeded with the cell lines of interest. The cells were diluted with full growth media to a concentration of 2.0×10^5 cells/mL and 100 μL of cells were added to each well (20,000 cells per well). The cells were treated with a compound immediately after plating.
(§3) The compounds were then added to the cell plate using the HP compound dispenser. In the initial experiment, a top concentration of 10 μM and an 8 point 4-fold dilution scheme was used. The stock compounds were made at a concentration of 5 mM, and the DMSO concentration was set to 0.2%. DMSO was used to normalize all the compound-containing wells and the untreated cells.
(§4) The treated cells were incubated at 37° C. in a 5% CO2 incubator for the desired amount of time. Plates were placed in a plastic bag with a wet paper towel to prevent evaporation.
(§5) RNA was isolated using the Cells to CT kit (ThermoFisher, AM1728). The cells were washed once with 100 μL cold PBS. 50 μL of lysis buffer was added to each well/tube (49.5 μL lysis buffer+0.5 μL DNase I per well/tube). The lysis reaction was mixed and incubated at room temperature for 5 minutes. 5 μL of stop solution was added directly into each cell lysis reaction and mixed by pipetting up and down 5 times. The plates/tubes were incubated at room temperature for 2 minutes then placed on ice if the cDNA synthesis was to be performed immediately. Otherwise, the plates/tubes were stored at −80° C.
(§6) cDNA synthesis reactions were then performed. 40 μL RT master mix was added to PCR tubes or plate wells. 10 μL of RNA was added to each tube/well. The RT thermal cycler program was then run and tubes or plate wells were incubated at 37° C. for 1 hour, then at 95° C. for 5 minutes to deactivate the enzyme.
(§7) The qPCR was performed using a QuantStudio 6 instrument (ThermoFisher) and the following cycling conditions and according to the tables below. All samples and standards were analyzed in triplicate. Cycle 1: 2 minutes at 50° C. Cycle 2: 10 minutes at 95° C. Cycle 3 (repeat 40 times): 15 seconds at 95° C., 1 minute at 60° C.
(§8) The determined IKBKAP^FL and […] isoform quantities were then used to determine the IKBKAP^FL: IKBKAP^Δ20 ratio at increasing SMSM compound concentrations. The PPIA quantities were used in the normalization to account of cell proliferation effects of the compounds.
(§9) An assay to measure the IKBKAP^FL mRNA and IKBKAP^Δ20 mRNA simultaneously in cell wells was performed. The RNA values were measured relative to DMSO control and also included a housekeeping gene, PPIA to ensure data was consistent. The mRNA values were measured after 24 hours of incubation with the SMSM compounds.
On the technique in general: In qPCR the cycle at which signal appears reflects the starting amount.

Another experiment concerns IKBKAP^Δ20 mRNA. The experiment is described as follows: IKBKAP splicing assay, qPCR. It counts as cell-based. The note with it: 24 hours of incubation. The protocol:
as §1, §2, §3, §4, §5, §6, §7, §8, §9

The mark [2] stands for this setting: A673, cell viability, read-out: A-673 IC50 (nM) Cell viability.
The mark [3] stands for this setting: A673, read-out: A-673 cell viability (IC50).

For the compound `CN(c1ccc(-c2ccc(-c3cn[nH]c3)cc2O)nn1)[C@@H]1C[C@H]2CCC[C@@H](C1)N2` [compound 160, 2-(6-(((1R,3s,5S)-9-azabicyclo[3.3.1]nonan-3-yl)(methyl)amino)pyridazin-3-yl)-5-(1H-pyrazol-4-yl)phenol], in the experiment with A375 xenografts, the “tumor growth inhibition (TGI), in words” value is given as “led to tumor growth inhibition”. Further, the IC50 (in general, the concentration that gives 50% inhibition) was under 10 nM in the experiment on A-673 cells (setting [2]), at most 5 nM in the experiment with A-673 cells (setting [3]), under 1 nM in experiment [1] and under 200 nM in the experiment with IKBKAP^Δ20 mRNA. The concentration for a half-maximal effect (EC50) – broadly, the concentration needed to bring the measured effect to its halfway point – in the experiment on IKBKAP^FL mRNA is under 100 nM.
With `CN(c1ccc(-c2ccc(-c3cn[nH]c3)cc2O)nn1)[C@@H]1C[C@H]2CC[C@@H](C1)N2` [compound 138, 2-(6-(((1R,3s,5S)-8-azabicyclo[3.2.1]octan-3-yl)(methyl)amino)pyridazin-3-yl)-5-(1H-pyrazol-4-yl)phenol], the concentration for half-maximal inhibition (IC50) in the experiment on A-673 cells (setting [2]) fell in the range of 10 to 100 nM; in the experiment on IKBKAP^Δ20 mRNA, 201 to 1000 nM. The compound also showed an EC50 in the experiment with IKBKAP^FL mRNA of 101 to 350 nM.
With `CN(c1ccc(-c2ccc(-c3cn[nH]c3)cc2O)nn1)[C@H]1C[C@]2(C)CC[C@](C)(C1)N2` [compound 151, 2-(6-(((1R,3s,5S)-1,5-dimethyl-8-azabicyclo[3.2.1]octan-3-yl)(methyl)amino)pyridazin-3-yl)-5-(1H-pyrazol-4-yl)phenol], in the experiment with A375 xenografts, the “tumor growth inhibition (TGI), in words” value is given as “led to tumor growth inhibition”. The IC50 is under 10 nM in the experiment with A-673 cells (setting [2]), at most 5 nM with A-673 cells (setting [3]) and under 1 nM in experiment [1].
